Assay results taken from patent US20240302368A1, “MIGRATION OF HUMAN PERIPHERAL LEUKOCYTES IN RESPONSE TO CHEMOTACTIC FACTORS DURING PREGNACY” (The Governors of the University of Alberta, priority 2021, published 2024).
“Also recorded” adds a separate entry of the source.

Experiments:
[1] = test system: CD-1 mice; assay: IL-1β-induced preterm birth (PTB) and fetal death in pregnant mice; format: in vivo, mouse; settings: for fetal death: IL-1β on GD 16 without or with rytvela, fetuses at GD 17
Source text: (§1) CD-1 mice were ordered from Charles-River Laboratories Canada (Montreal, QC, Canada) and housed by Health Sciences Laboratory Animal Services at the University of Alberta. (Edmonton, AB, Canada) on a standard diet. Six groups of mice were euthanized at GD15, 17, 18, 18.5, 19 during spontaneous labor, and post-partum (PP)-1 Four groups of mice were anesthetized under isoflurane and a 1.5 cm-tall median incision was made in the lower abdominal wall. The lower segment of the right uterine hom was exposed, IL-1β (3 μg) or vehicle (0.9% saline) was injected between two fetal membranes, and the abdominal muscle layer and skin were sutured. Rytvela (1 mgikg, Elim Biopharmaceuticals, Hayward, CA) or vehicle (0.9% saline) was injected i.p. in a total volume of 100 μL saline, the first dose of which was given 30 min prior to administration of stimuli and three doses every 12 h thereafter. Animals were monitored for the onset of preterm labor (PTL) using infrared video camera recording commencing at GD16.5. Mice were euthanized at the onset of PTL or at GD17 From all ten groups of mice, lower uteri, upper uteri, placentas, fetal membranes and cervices were collected and normalized to wet tissue weight (100 mg/mL) in Dulbecco's Modified Eagle's Medium (DMEM) F-12 (Thermo Fisher Scientific, MA, USA). These tissues were homogenized by TissueLyser II (QIAGEN, Hilden, Germany) according to the manufacturer's protocol and centrifuged at 4° C., 13,000×g for 10 min to extract total protein. Maternal whole blood was collected via cardiac puncture. Whole fetuses (n=2 per dam) were also collected.

[2] = test system: CD-1 mice; assay: Neutrophil (Ly-6G+) invasion of mouse lower uterus and fetal brain, immunohistochemistry; format: in vivo; settings: IL-1β on GD 16 without or with rytvela; compared to sham control; p<0.05
Source text: as §1
Six cryosections (7 μm) per treatment group were prepared from snap-frozen lower uteri and fetal heads (n=2 per dam) and stained for neutrophils using a goat anti-mouse Ly-6G antibody (Invitrogen, Carlsbad, CA, USA) and a rat anti-goat secondary antibody tagged with an Alexa Fluor 488 fluorescence marker (Invitrogen). Cells were counterstained using Hoechst 33342 (Thermo Fisher Scientific) and tissue homology was confirmed with a hematoxylin and eosin stain (Thermo Fisher Scientific). Four different fields (20× optical zoom) were counted per section by two observers blinded to the specimen details. Areas containing blood vessels and leukocytes within blood vessels were excluded. The arithmetic mean was calculated for each sample between the two observers. In the fetus, we focused on leukocyte invasion of the brain because of the evidence associating maternal inflammation and adverse outcomes to the fetal brain (15, 28).

[3] = mouse; cited from earlier work
[4] = test system: peripheral mouse leukocytes; assay: Cytokine mRNA abundance in peripheral leukocytes of pregnant mice, RT-qPCR; format: in vivo; settings: GD 17 after IL-1β on GD 16, without or with rytvela; p<0.05
Source text: (§2) CD-1 mice were ordered from Charles-River Laboratories Canada (Montreal, QC, Canada) and housed by Health Sciences Laboratory Animal Services at the University of Alberta. (Edmonton, AB, Canada) on a standard diet. Six groups of mice were euthanized at GD15, 17, 18, 18.5, 19 during spontaneous labor, and post-partum (PP)-1 Four groups of mice were anesthetized under isoflurane and a 1.5 cm-tall median incision was made in the lower abdominal wall. The lower segment of the right uterine hom was exposed, IL-1β (3 μg) or vehicle (0.9% saline) was injected between two fetal membranes, and the abdominal muscle layer and skin were sutured. […] Animals were monitored for the onset of preterm labor (PTL) using infrared video camera recording commencing at GD16.5. […]
Total RNA was extracted from mouse whole blood using the RNeasy protect animal blood system (Qiagen, Hilden, Germany) according to the manufacturer's protocol. RNA concentration were determined using a NanoDrop 1000 spectrophotometer to measure the optical density (OD) photometrically at 280 nm and 260 nm (an OD260 nm/280 nm ratio of >1.8 was considered protein-free RNA). cDNA was synthesized from 500 ng RNA using qScript cDNA SuperMix (Quanta Biosciences, MA, USA) according to the manufacturer's protocol. […]

[5] = biological target: T1, IL-1 receptor (IL-1R) (Mus musculus, UniProt P13504); settings: PTB induced by IL-1β, LTA or LPS; cited from earlier work
T1 construct: host or cells: pregnant mice, in vivo
T1 sequence (P13504 20-576): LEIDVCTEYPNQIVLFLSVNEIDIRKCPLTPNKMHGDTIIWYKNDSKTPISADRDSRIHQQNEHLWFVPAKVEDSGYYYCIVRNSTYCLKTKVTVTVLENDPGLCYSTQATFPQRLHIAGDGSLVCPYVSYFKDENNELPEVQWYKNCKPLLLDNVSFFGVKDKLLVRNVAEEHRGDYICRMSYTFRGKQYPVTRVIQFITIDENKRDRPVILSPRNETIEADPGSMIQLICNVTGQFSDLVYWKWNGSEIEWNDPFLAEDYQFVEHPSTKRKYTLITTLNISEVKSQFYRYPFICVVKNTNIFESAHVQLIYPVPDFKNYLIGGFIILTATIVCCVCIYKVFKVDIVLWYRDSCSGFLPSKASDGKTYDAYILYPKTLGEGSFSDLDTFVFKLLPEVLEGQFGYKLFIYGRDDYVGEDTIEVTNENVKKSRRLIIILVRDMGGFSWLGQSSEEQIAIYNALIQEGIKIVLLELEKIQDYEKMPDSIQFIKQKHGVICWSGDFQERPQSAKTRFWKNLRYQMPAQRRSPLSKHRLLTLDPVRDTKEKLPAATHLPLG

[6] = test system: mouse leukocytes; assay: Mouse leukocyte migration assay (mLMA) with GD 18.5 lower uterus chemoattractant; format: in vivo; settings: GD 17 after IL-1β on GD 16, without or with rytvela, p<0.05
Source text: (§3) CD-1 mice were ordered from Charles-River Laboratories Canada (Montreal, QC, Canada) and housed by Health Sciences Laboratory Animal Services at the University of Alberta. (Edmonton, AB, Canada) on a standard diet. Six groups of mice were euthanized at GD15, 17, 18, 18.5, 19 during spontaneous labor, and post-partum (PP)-1 Four groups of mice were anesthetized under isoflurane and a 1.5 cm-tall median incision was made in the lower abdominal wall. The lower segment of the right uterine hom was exposed, IL-1β (3 μg) or vehicle (0.9% saline) was injected between two fetal membranes, and the abdominal muscle layer and skin were sutured. Rytvela (1 mgikg, Elim Biopharmaceuticals, Hayward, CA) or vehicle (0.9% saline) was injected i.p. in a total volume of 100 μL saline, the first dose of which was given 30 min prior to administration of stimuli and three doses every 12 h thereafter. Animals were monitored for the onset of preterm labor (PTL) using infrared video camera recording commencing at GD16.5. […]
Total leukocytes were isolated from whole blood using HetaSep (Stemcell Technologies Canada Inc., BC. Canada) according to the manufacturer's protocol. […] Fluorescence in each well was measured using a Fluoroskan Ascent (Thermo Fisher Scientific), and the number of chemoattracted leukocytes was calculated using 4 parameter logistic regression.

[7] = biological target: T2, IL-1 receptor (Mus musculus, UniProt P13504); settings: LPS-treated mice; cited from earlier work
T2 construct: host or cells: pregnant mice, in vivo
T2 sequence (P13504 20-576): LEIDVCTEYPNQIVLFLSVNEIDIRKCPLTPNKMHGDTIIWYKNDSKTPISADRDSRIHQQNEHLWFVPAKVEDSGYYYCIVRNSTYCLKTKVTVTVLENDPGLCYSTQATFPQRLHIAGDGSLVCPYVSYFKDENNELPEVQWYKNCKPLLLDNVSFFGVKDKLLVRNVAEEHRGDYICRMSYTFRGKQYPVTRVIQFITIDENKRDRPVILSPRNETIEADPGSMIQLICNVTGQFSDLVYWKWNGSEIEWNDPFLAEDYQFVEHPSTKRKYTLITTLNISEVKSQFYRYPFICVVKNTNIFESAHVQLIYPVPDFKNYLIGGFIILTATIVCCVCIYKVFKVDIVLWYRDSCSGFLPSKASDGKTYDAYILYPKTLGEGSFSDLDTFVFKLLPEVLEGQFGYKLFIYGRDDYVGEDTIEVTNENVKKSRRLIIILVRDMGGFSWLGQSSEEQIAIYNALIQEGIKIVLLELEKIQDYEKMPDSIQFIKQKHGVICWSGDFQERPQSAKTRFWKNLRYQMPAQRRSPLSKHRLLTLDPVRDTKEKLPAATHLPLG

[8] = test system: TL leukocytes; assay: TL leukocytes incubated with hFM conditioned medium -/+ IL-1β; double conditioned medium as chemoattractant in LMA; format: cell-based, human; settings: TL leukocytes treated with IL-1β plus hFM explant conditioned medium; fresh TL leukocytes migrate
Experimental: Leukocyte migration assay (LMA). The LMA for FIGS. 6 and 7 was performed as described above with the exception that 200,000 leukocytes were placed into the upper chamber. The LMA for FIGS. 3, 5 and FIG. 10 was performed using non-commercial, 3D printed Boyden chambers that produced nearly identical results to our published work with commercial Boyden chambers with the exception that the cutoff for predicting delivery within 7 days was 4575 cells (see FIG. 10 for more information).
Leukocyte Incubation with hFM Conditioned Medium. Conditioned medium from hFM explants was prepared as described previously (23). TL leukocytes were incubated with this single conditioned medium for 1 h at 37° C. and gentle agitation using a stir bar to prevent clumping. The supernatant was isolated via density centrifugation and used as the chemoattractant in an LMA to assess the further contribution of the leukocytes to the conditioned medium. This is referred to as ‘double conditioned medium.’ The pelleted TL leukocytes were resuspended in RPMI, and their responsiveness to GCF was assessed using an LMA.

[9] = test system: hFM explants; assay: hFM explants treated with IL-1β; conditioned medium tested in LMA; format: cell-based, human
Experimental: Leukocyte migration assay (LMA). The LMA was carried out with the Modified Boyden chemotaxis chambers (AP48; Neuro Probe, Gaithersburg, MD, USA) as we published (19). The chamber is divided into the upper and lower berths. Twenty-five microliters of fetal membrane extracts were placed in the lower chamber of each well. DMEM, as a negative control, was placed in the lower chamber. A polycarbonate membrane with 3 μm pores (Neuro Probe, Gaithersburg. MD, USA) was next placed over the lower chamber, followed by a rubber gasket. Then 100,000 isolated leukocytes from whole blood of pregnant women were placed in the upper chamber of each well. The chambers were incubated for 90 min at 37′C in a humidified air incubator containing 5% CO2. After incubation, migrated leukocytes were removed from the lower chamber and put into 5 mL BD Falcon™ polystyrene round bottom tubes (Thermo Fischer Scientific K.K., Yokohama, Japan). Three hundred microliters of OptiLyse (Beckman Coulter, Beckman Coulter, Inc., Brea, CA, USA) were added to lyse RBCs, and the sample was vortexed immediately for 1 sec. The tube was incubated for 15 min at room temperature (20-25° C.) while protected from light. […] 1×PBS was added to each tube. […] The lower chamber samples were then kept covered in a 4′C cold room until quantification using flow cytometry (BD FACS Verse, BD Biosciences, Tokyo, Japan). […]

[10] = test system: mouse lower uterus; assay: KC and MIP-2 protein in mouse lower uterus extracts, multiplex; format: in vivo; settings: IL-1β on GD 16, lower uterus at GD 17
Source text: as §2
Mouse lower uterus tissue was suspended in DMEM-F12 medium (Thermo Fisher Scientific Inc., Ottawa, ON, Canada) at 100 mg wet tissue weight/mL and homogenized by TissueLyser II (Qiagen, Hilden, Germany) according to the manufacturer's instructions. […] Keratinocyte chemoattractant (KC) and macrophage inflammatory protein (MIP)-2 levels were measured by Bio-Plex Multiplex Immunoassay kit (Bio-Rad Laboratories, Hercules, CA, USA) according to the manufacturer's instructions.

[11] = test system: mouse lower uterus; assay: Mouse lower uterine chemoattractant assessed by leukocyte migration assay (LMA); format: in vivo; settings: IL-1β on GD 16, chemoattractant on GD 17
Source text: as §3
Total leukocytes were isolated from whole blood using HetaSep (Stemcell Technologies Canada Inc., BC. Canada) according to the manufacturer's protocol. […] Fluorescence in each well was measured using a Fluoroskan Ascent (Thermo Fisher Scientific), and the number of chemoattracted leukocytes was calculated using 4 parameter logistic regression. […]

rytvela
PTB (in words) ([1]; FIG. 11A, n=5-7 per group): inhibited
fetal death [1]: normal GD 17 fetuses
fetal death ([1]; listed as Rytvela): prevented fetal death
PTB rate ([1]; rytvela co-administered with IL-1β (GD 16)): 0%
neutrophil density in fetal brain [2]: blocked the increase in neutrophil density
neutrophil density in lower (maternal) uterus [2]: blocked the increase in neutrophil density
transfer from mother to fetus [3]: does not transfer from mother to fetus
leukocyte mRNA abundance of IL-1β, IL-6, TNF-α and CCL2 [4]: blocked
PTB [5]: blocked
mouse leukocyte migration [6]: blocked
neutrophil infiltration (invasion) of fetal membranes [7]: blocked

B1: IL-1β: Interleukin (IL)-1β, mediator of infectious and sterile-inflammatory preterm birth; used to induce PTB in mice (protein, UniProt P10749 118-269, looked up)
Interleukin-1 beta: VPIRQLHYRLRDEQQKSLVLSDPYELKALHLNGQNINQQVIFSMSFVQGEPSNDKIPVALGLKGKNLYLSCVMKDGTPTLQLESVDPKQYPKKKMEKRFVFNKIEVKSKVEFESAEFPNWYISTSQAEHKPVFLGNNSGQDIIDFTMESVSS
PTB rate ([1]; IL-1β administered on GD 16, PTB on GD 17): 86%
fetal death [1]: increased fetal death; also recorded: undergoing resorption
neutrophil density in fetal brain [2]: increased detection of Ly-6G+ neutrophils
neutrophil density in lower (maternal) uterus [2]: increased detection of Ly-6G+ neutrophils
leukocyte chemoattractant release [8]: greater leukocyte chemoattractant release
chemoattractant release from hFM explants ([9]; TNL and TL hFM explants -/+ IL-1β, TL leukocytes in LMA): did not promote more chemoattractant release
TNL leukocyte sensitivity to migration after hFM explant conditioned medium ([9]; hFM explants pretreated with IL-1β 6 h, TNL leukocytes incubated 1 h, TL chemoattractant): had no effect
mouse leukocyte migration [6]: increased leukocyte migration
KC protein in lower uterus [10]: stimulated increases
MIP-2 protein in lower uterus [10]: stimulated increases
lower uterine chemoattractant [11]: did not stimulate an increase
